Measurements taken from article PMC4226669, “Anti-cancer potency of tasquinimod is enhanced via albumin-binding facilitating increased uptake in the tumor microenvironment” (Oncotarget, 2014).

Legend:
[1] = biological target: human serum albumin (HSA) (Homo sapiens, UniProt P02768); assay: Reversibility of albumin binding (dialysis against drug free HSA); conditions: after 4 hours of dialysis, pH 7.4
Method: In additional studies, 200 μg (i.e., 3nmol) of human serum albumin (HSA) was incubated with 400 pmoles of ^14C-labeled tasquinimod at pH 7.4 so that 50% of the drug is protein bound. This solution was then placed in a dialysis chamber opposite an equal volume of a solution containing 8 mg (i.e., 120 nmoles) of drug free HSA at pH 7.4 separated by a membrane which is permeable to unbound free tasquinimod, but impermeable to albumin. The 8 mg of HSA in the initial drug free side was chosen because this amount of albumin can bind 98% of the drug when exposed to 400 pmoles of tasquinimod.

HUVEC cells = assay: In vitro cell metabolism in HUVEC; format: in vitro ADME, human; conditions: HUVEC, 1 μM, 48 hours
Method: The nuclear uptake results are consistent with tasquinimod being the active drug for both direct therapeutic effects on cancer cells and indirect effects via suppression of the angiogenic response of host endothelial cells. To confirm these conclusions, the concentration of tasquinimod metabolites produced by endothelial cells was compared to the potency of these metabolites for inhibiting angiogenesis. When HUVEC cells are exposed to 1 μM of ^14C-labeled tasquinimod for 48 hours, < 15% of the drug is metabolized with 10% (i.e., 100 nM) being converted to the quinoline-O-demethylated compound and < 2% (i.e., < 20 nM) being converted to the quinoline-N-demethylated or carboxamide-N-demethylated compounds.
For in vitro studies, cells were incubated with 1μM ^14C-labeled tasquinimod for indicated time period and then the media and cells or cell nuclei separately harvested, deproteinated with acetonitrile, and metabolites separated by HPLC and quantitated as described above.

[2] = test system: CWR-22RH human prostate cancer; assay: Tumor take of CWR-22RH xenografts in castrated nude mice; format: in vivo, mouse; conditions: tasquinimod alone 10mg/kg/day via drinking water from inoculation
Method: To confirm this conclusion, castrated male nude mice were xenografted with the castrate resistant CWR-22RH human prostate cancer tissue and the animals immediately randomized into groups (n=10) which were: 1) left untreated as controls; 2) given daily oral treatment with tasquinimod alone via the drinking water (10mg/kg/day); 3) given oral ketoconazole alone via oral gavage at a daily dose which inhibits cytochrome P450 3A4 (i.e., 25 mg/kg/day); or 4) given a combination of the two drugs. […] These combined in vitro/in vivo results document tasquinimod, not one of its metabolites, is the active drug.
The source, history, and characteristics of the human prostate cancer cell lines (i.e., LNCaP, LAPC4, and CWR-22Rv1 and the human umbilical vascular endothelial cells (HUVEC) used, as well as cell culture conditions for their in vitro maintenance and the in vivo protocol for their xenografting into immune-deficient nude male mice are as described previously. The source, history, and characteristics of the TRAMP-C2 mouse prostate cancer line, as well as cell culture conditions for their in vitro maintenance and the in vivo protocol for their growth in intact adult male syngeneic C57Bl/6J are as described previously. All lines were mycoplasma negative using the MycoSensor PCR Assay kit (Agilent Technologies) and genetically authenticated within the last 6 months using short tandem repeat profiling conducted by the Johns Hopkins Genetic Resource Core Facility. The source, history, and characteristics of the CWR-RH human prostate cancer xenograft are as described previously. In vitro growth curves were determined as described. Animal studies were conducted according to animal protocol MO09M434 approved by Johns Hopkins Animal Care and Use Committee. Daily drug dosing via oral gavage, the drinking water, or subcutaneous injection, as well as tumor volume measurements and determination of the blood vessel density within cancers, were as described previously. These experiments were repeated at 3 independent times for each xenograft.

[3] = test system: CWR-22Rv1 prostate cancers; assay: Vascular volume, albumin-Evans Blue accumulation (EPR effect) and growth in CWR-22Rv1 bearing mice treated with tasquinimod; format: in vivo, mouse
Method: To evaluate the potential importance of an EPR effect for enhancing tumor specific tasquinimod uptake and thus anti-cancer potency, albumin retention in plasma and normal tissue vs. prostate cancer was determined. To do this, nude mice bearing CWR-22Rv1 prostate cancers were injected intravenously (IV) with Evans Blue (EB) at a dose (10mg/kg) so that all of the dye is initially bound to albumin within the blood. Twenty-four hours later, the amount of albumin-EB complex retained in plasma vs. accumulated in liver, kidney, or CWR-22Rv1 prostate cancers determined. The results are expressed as concentration of extractable albumin-EB in plasma vs. the specified tissue. These studies document that prostate cancers accumulate a concentration of albumin-EB that is equal to that in the plasma by 24 hours, Figure 3C. When normalized to vascular volume, the albumin-EB accumulation by prostate cancers is more than two fold greater (p<0.05) compared to liver and more than 8 fold greater (p<0.05) compared to kidney, Figure 3C. […] Such continuous treatment with tasquinimod decreased the vascular volume within the cancers by nearly half (p<0.05), Figure 3C. […]
Tissue vascular volumes for liver, kidney, and CWR-22Rv1 cancers were determined previously via intravenous infusion of^51 Chromium (Perkin Elmer, Shelton, CT) labeled red blood cells and the result expressed as percent vascular volume as described previously.
EPR effect was determined using Evans Blue as described previously with the modification that 24 hours after the albumin in the blood of tumor bearing nude mice was labeled via IV injection of Evans Blue (EB) at a dose of 10mg/kg, the animals were anesthetized, blood collected, and then animals were perfused with saline to remove blood from the host tissues before harvesting liver, kidney, and prostate cancer xenograft tissue. The results are expressed as the concentration of EB-labeled albumin retained in the blood or specified tissue.

bovine albumin = biological target: T1, bovine albumin (Bos taurus, UniProt P02769); assay: Equilibrium dialysis binding to bovine albumin; conditions: pH 7.4, equilibrium dialysis, read-out: equilibrium dissociation constant (Kd)
T1 construct: purchased Sigma
Method: To determine whether albumin is the tasquinimod binding protein in plasma, albumin was removed from human plasma using an albumin depletion kit (Thermo Scientific cat # 85160). The albumin depleted plasma was then tested for its protein binding as described above. The dissociation constant (kd) for tasquinimod binding was determined based upon equilibrium dialysis of a mixture of 4mg/ml of the species (i.e., human, bovine, and mouse) specific albumin obtained from Sigma with 2μM of ^14C-labeled tasquinimod in PBS pH 7.4 buffer using a 96-well equilibrium dialyzer™ (Harvard Apparatus, Holliston,MA).

[4] = test system: metastatic, castrate resistant prostate cancer; set-up: method as in PMID 21931019, PMID 24255071; conditions: vs placebo; cited from earlier work

human serum albumin (HSA), sequence (P02768 25-609): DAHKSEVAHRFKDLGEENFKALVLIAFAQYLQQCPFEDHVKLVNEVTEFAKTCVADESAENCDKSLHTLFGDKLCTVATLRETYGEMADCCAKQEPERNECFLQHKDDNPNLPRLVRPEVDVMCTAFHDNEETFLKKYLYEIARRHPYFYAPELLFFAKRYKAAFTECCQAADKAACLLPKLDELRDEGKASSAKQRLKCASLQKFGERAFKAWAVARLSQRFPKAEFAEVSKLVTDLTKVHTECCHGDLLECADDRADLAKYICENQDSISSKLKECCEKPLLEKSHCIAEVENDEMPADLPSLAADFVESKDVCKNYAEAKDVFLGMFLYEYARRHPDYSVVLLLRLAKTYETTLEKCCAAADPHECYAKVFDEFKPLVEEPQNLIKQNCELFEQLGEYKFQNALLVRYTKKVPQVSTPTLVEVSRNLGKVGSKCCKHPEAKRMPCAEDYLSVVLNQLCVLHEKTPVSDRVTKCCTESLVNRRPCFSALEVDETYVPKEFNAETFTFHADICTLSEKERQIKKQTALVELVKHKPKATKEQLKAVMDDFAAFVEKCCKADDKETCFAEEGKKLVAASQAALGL
T1 sequence (P02769 25-607): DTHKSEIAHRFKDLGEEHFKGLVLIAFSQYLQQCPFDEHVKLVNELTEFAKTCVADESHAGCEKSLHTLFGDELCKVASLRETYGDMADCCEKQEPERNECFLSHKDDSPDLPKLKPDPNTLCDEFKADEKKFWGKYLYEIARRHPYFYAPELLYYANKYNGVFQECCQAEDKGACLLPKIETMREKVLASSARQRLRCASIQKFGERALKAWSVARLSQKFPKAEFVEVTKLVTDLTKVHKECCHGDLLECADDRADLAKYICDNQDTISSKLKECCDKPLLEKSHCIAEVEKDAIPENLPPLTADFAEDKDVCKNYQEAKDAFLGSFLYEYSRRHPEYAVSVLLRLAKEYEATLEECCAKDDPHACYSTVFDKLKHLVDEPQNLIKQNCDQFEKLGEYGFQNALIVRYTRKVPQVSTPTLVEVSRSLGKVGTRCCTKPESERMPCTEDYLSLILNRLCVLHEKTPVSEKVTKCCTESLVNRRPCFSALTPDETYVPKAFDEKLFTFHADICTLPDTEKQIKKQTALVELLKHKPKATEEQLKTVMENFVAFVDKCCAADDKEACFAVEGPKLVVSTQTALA

SMILES: COc1cccc2c1c(O)c(C(=O)N(C)c1ccc(C(F)(F)F)cc1)c(=O)n2C [Tasquinimod]
- initial protein bound tasquinimod released [1]: 65 ± 9%
- drug metabolized (HUVEC cells): < 15%
- tumor take and subsequent malignant growth [2]: prevents tumor take
- Percent Vascular Volume (Prostate Cancer) ([3]; 10mg/kg/day for 30 days): 1.4±0.4
- decrease of vascular volume within the cancers ([3]; 10 mg/kg/day for a month): nearly half
- inhibition in cancer growth ([3]; CWR-22Rv1, 10 mg/kg/day for a month): greater than 80%
- Kd (bovine albumin): 31 ± 6 µM
- median progression-free survival [4]: doubles
